Test [1] in a line: Inhibition of VEGFR-3 (unknown origin) by tumor cell growth inhibition assay.
Test [2] can be described thus: Inhibition of VEGFR-1 (unknown origin) by tumor cell growth inhibition assay.
Test [3] can be described thus: Inhibition of c-Met (unknown origin) by tumor cell growth inhibition assay.
Test [4] is described as follows: Inhibition of VEGFR-2 (unknown origin) by tumor cell growth inhibition assay.

Usually IC50 stands for the concentration that inhibits the measured activity by half.

Regarding `Cn1ccnc1-c1cc2c(Oc3ccc(NC(=S)NC(=O)Cc4ccccc4)cc3F)ccnc2s1`, the IC50 in test [1] is 4 nM; in test [2], 3 nM; in test [3] it was 1 nM; in test [4] it was 3 nM.

For the origin of these results see BindingDB's records for doi:10.1016/j.ejmech.2015.12.016 (Shenyang Pharmaceutical University, 2016).
